Patent publication US20210024542A1 (Torcept Therapeutics, Inc., priority 2018, published 2021)
Like-named read-outs stand apart in the source and are kept apart here.

Experiments:
Type in all cases: cell-based, human
A388 = assay: OncoPanel cell proliferation assay, A388; details: for Relative cell count (%) Mean: A388
Procedure: (§1) Cells were seeded into 384-well plates and incubated in a humidified atmosphere of 5% CO2 at 37° C. Compounds were added the day following cell seeding. At the same time, a time zero untreated cell plate was generated. After a 3-day incubation period, cells were fixed and stained to allow fluorescence imaging of nuclei. Compounds (1 mM stock solutions) were serially diluted in half-log steps from the highest test concentration ([…]), and assayed over 10 concentrations with a maximum assay concentration of 0.1% DMSO. Automated fluorescence microscopy was carried out using a Molecular Devices ImageXpress Micro XL high-content imager, and images were collected with a 4× objective. 16-bit TIFF images were acquired and analyzed with MetaXpress 5.1.0.41 software.
(§2) Cell proliferation was measured by the fluorescence intensity of an incorporated nuclear dye. The output is referred to as the relative cell count, where the measured nuclear intensity is transformed to percent of control (POC) using the following formula: […]
(§3) Cellular response parameters were calculated using nonlinear regression to a sigmoidal single-site dose response model:
(§4) Where y is a response measured at concentration x, A and B are the lower and upper limits of the response, C is the concentration at the response midpoint (EC50), and D is the Hill Slope (Ref. 1).
(§5) GI50 is the concentration needed to reduce the observed growth by half (midway between the curve maximum and the time zero value). […] In rare instances, values <0 or >10 may be observed. […] Curve-fitting, calculations, and report generation was performed using a custom data reduction engine and MathIQ based software (AIM).

A431 = assay: OncoPanel cell proliferation assay, A431; details: for Relative cell count (%) Mean: A431
Procedure: as §1, with “Cells were grown in RPMI 1640, 10% FBS, 2 mM L-alanyl-L-glutamine, 1 mM Na pyruvate, or a special medium. Cells” for “Cells”
as §2, §3, §4
(§6) EC50 is the test compound concentration at the curve inflection point or half the effective response (parameter C of the fitted curve solution). GI50 is the concentration needed to reduce the observed growth by half (midway between the curve maximum and the time zero value). “Cell Count Activity Area” is an estimate of the integrated area above the curve (Barretina, et al. The Cancer Cell Line Encyclopedia enables predictive modelling of anticancer drug sensitivity. Nature 483: 603-607). […] In rare instances, values <0 or >10 may be observed. […] Curve-fitting, calculations, and report generation was performed using a custom data reduction engine and MathIQ based software (AIM).

AGS = assay: OncoPanel cell proliferation assay, AGS
Procedure: as §1, with “Cells were grown in RPMI 1640, 10% FBS, 2 mM L-alanyl-L-glutamine, 1 mM Na pyruvate, or a special medium. Cells” for “Cells”
as §2, §3, §4, §6

CaOV3 = assay: OncoPanel cell proliferation assay, CaOV3; details: for Relative cell count (%) Mean: CaOV3
Procedure: as §1, with “Cells were grown in RPMI 1640, 10% FBS, 2 mM L-alanyl-L-glutamine, 1 mM Na pyruvate, or a special medium. Cells” for “Cells”
as §2, §3, §4, §6

NCI-H510A = assay: OncoPanel cell proliferation assay, NCI-H510A
Procedure: as §1, with “Cells were grown in RPMI 1640, 10% FBS, 2 mM L-alanyl-L-glutamine, 1 mM Na pyruvate, or a special medium. Cells” for “Cells”
as §2, §3, §4, §6

SNU-5 = assay: OncoPanel cell proliferation assay, SNU-5; details: for Relative cell count (%) Mean: SNU-5
Procedure: as §1, §2, §3, §4, §5

[1] = Homo sapiens, 72 h, 3-day incubation, read-out: Cell Count EC50
[2] = Homo sapiens, 72 h, 3-day incubation, read-out: Cell Count GI50
[3] = Homo sapiens, 72 h, 3-day incubation, read-out: Cell Count IC50

Compound: CO[C@H]1C[C@@H]2CC[C@@H](C)[C@@](O)(O2)C(=O)C(=O)N2CCCC[C@H]2C(=O)O[C@H]([C@H](C)C[C@@H]2C[C@@H]3C[C@H]2C[C@H]3O)CC(=O)[C@H](C)/C=C(\C)[C@@H](O)[C@@H](OC)C(=O)[C@H](C)C[C@H](C)/C=C/C=C/C=C/1C [Formula I, 37R-hydroxynorbornylrapamycin]
- Cell Count Activity Area (A388; A388, scale 0-10): 3.22
- Relative cell count (%) Mean (A388; 1.00E+00 microM): 53.8%
- Relative cell count (%) Mean (A388; 1.00E−01 microM): 62.3%
- Relative cell count (%) Mean (A388; 1.00E−02 microM): 63.3%
- Relative cell count (%) Mean (A388; 1.00E−03 microM): 69.1%
- Relative cell count (%) Mean (A388; 1.01E−04 microM): 77.9%
- Relative cell count (%) Mean (A388; 3.16E−01 microM): 59.0%
- Relative cell count (%) Mean (A388; 3.17E−02 microM): 59.6%
- Relative cell count (%) Mean (A388; 3.17E−03 microM): 67.1%
- Relative cell count (%) Mean (A388; 3.18E−04 microM): 76.3%
- Relative cell count (%) Mean (A388; 3.18E−05 microM): 89.9%
- EC50 (A388; Homo sapiens, 72 h, A388, 3-day incubation, read-out: Cell Count EC50): 0.19 nM
- GI50 (A388; Homo sapiens, 72 h, A388, 3-day incubation, read-out: Cell Count GI50): 50.7 nM
- IC50 (A388; Homo sapiens, 72 h, A388, 3-day incubation, read-out: Cell Count IC50): > 1000 nM
- Cell Count Activity Area (A431; A431, scale 0-10): 1.96
- Relative cell count (%) Mean (A431; 1.00E+00 microM): 64.2%
- Relative cell count (%) Mean (A431; 1.00E−01 microM): 72.8%
- Relative cell count (%) Mean (A431; 1.00E−02 microM): 84.2%
- Relative cell count (%) Mean (A431; 1.00E−03 microM): 93.5%
- Relative cell count (%) Mean (A431; 1.01E−04 microM): 101.0%
- Relative cell count (%) Mean (A431; 3.16E−01 microM): 66.5%
- Relative cell count (%) Mean (A431; 3.17E−02 microM): 78.2%
- Relative cell count (%) Mean (A431; 3.17E−03 microM): 84.4%
- Relative cell count (%) Mean (A431; 3.18E−04 microM): 91.9%
- Relative cell count (%) Mean (A431; 3.18E−05 microM): 104.6%
- EC50 (A431; Homo sapiens, A-431, 72 h, A431, 3-day incubation, read-out: Cell Count EC50): 14.3 nM
- GI50 (A431; Homo sapiens, A-431, 72 h, A431, 3-day incubation, read-out: Cell Count GI50): > 1000 nM
- IC50 (A431; Homo sapiens, A-431, 72 h, A431, 3-day incubation, read-out: Cell Count IC50): > 1000 nM
- EC50 (A431; Homo sapiens, A-431, Table 4 summary, A431, Skin, Head/Neck, read-out: EC50): 14 nM
- Relative cell count (%) Mean (AGS; 1.00E+00 microM): 32.3%
- Relative cell count (%) Mean (AGS; 1.00E−01 microM): 39.3%
- Relative cell count (%) Mean (AGS; 1.00E−02 microM): 39.1%
- Relative cell count (%) Mean (AGS; 1.00E−03 microM): 39.8%
- Relative cell count (%) Mean (AGS; 1.01E−04 microM): 58.2%
- Relative cell count (%) Mean (AGS; 3.16E−01 microM): 38.3%
- Relative cell count (%) Mean (AGS; 3.17E−02 microM): 34.7%
- Relative cell count (%) Mean (AGS; 3.17E−03 microM): 40.1%
- Relative cell count (%) Mean (AGS; 3.18E−04 microM): 45.6%
- Relative cell count (%) Mean (AGS; 3.18E−05 microM): 82.7%
- EC50 (AGS; [1]): 0.0635 nM
- GI50 (AGS; [2]): 0.136 nM
- IC50 (AGS; [3]): 0.186 nM
- Cell Count Activity Area (AGS; scale 0-10): 5.50
- Cell Count Activity Area (CaOV3; CaOV3, scale 0-10): 2.82
- Relative cell count (%) Mean (CaOV3; 1.00E+00 microM): 54.4%
- Relative cell count (%) Mean (CaOV3; 1.00E−01 microM): 58.3%
- Relative cell count (%) Mean (CaOV3; 1.00E−02 microM): 64.8%
- Relative cell count (%) Mean (CaOV3; 1.00E−03 microM): 75.3%
- Relative cell count (%) Mean (CaOV3; 1.01E−04 microM): 91.0%
- Relative cell count (%) Mean (CaOV3; 3.16E−01 microM): 57.1%
- Relative cell count (%) Mean (CaOV3; 3.17E−02 microM): 59.5%
- Relative cell count (%) Mean (CaOV3; 3.17E−03 microM): 68.5%
- Relative cell count (%) Mean (CaOV3; 3.18E−04 microM): 85.0%
- Relative cell count (%) Mean (CaOV3; 3.18E−05 microM): 92.8%
- EC50 (CaOV3; Homo sapiens, Caov-3, 72 h, CaOV3, 3-day incubation, read-out: Cell Count EC50): 0.976 nM
- GI50 (CaOV3; Homo sapiens, Caov-3, 72 h, CaOV3, 3-day incubation, read-out: Cell Count GI50): 9.68 nM
- IC50 (CaOV3; Homo sapiens, Caov-3, 72 h, CaOV3, 3-day incubation, read-out: Cell Count IC50): > 1000 nM
- Relative cell count (%) Mean (NCI-H510A; 1.00E+00 microM): 66.2%
- Relative cell count (%) Mean (NCI-H510A; 1.00E−01 microM): 62.8%
- Relative cell count (%) Mean (NCI-H510A; 1.00E−02 microM): 69.5%
- Relative cell count (%) Mean (NCI-H510A; 1.00E−03 microM): 68.9%
- Relative cell count (%) Mean (NCI-H510A; 1.01E−04 microM): 77.7%
- Relative cell count (%) Mean (NCI-H510A; 3.16E−01 microM): 66.3%
- Relative cell count (%) Mean (NCI-H510A; 3.17E−02 microM): 64.7%
- Relative cell count (%) Mean (NCI-H510A; 3.17E−03 microM): 72.2%
- Relative cell count (%) Mean (NCI-H510A; 3.18E−04 microM): 70.5%
- Relative cell count (%) Mean (NCI-H510A; 3.18E−05 microM): 75.7%
- EC50 (NCI-H510A; [1]): 0.00399 nM
- GI50 (NCI-H510A; [2]): 0.83 nM
- IC50 (NCI-H510A; [3]): > 1000 nM
- EC50 (NCI-H510A; Homo sapiens, Table 4 summary, Small cell lung cancer, read-out: EC50): 0.004 nM
- Cell Count Activity Area (NCI-H510A; scale 0-10): 3.05
- EC50 (SNU-5; Homo sapiens, 72 h, SNU-5, 3-day incubation, read-out: Cell Count EC50): 2.05 nM
- GI50 (SNU-5; Homo sapiens, 72 h, SNU-5, 3-day incubation, read-out: Cell Count GI50): 23.8 nM
- IC50 (SNU-5; Homo sapiens, 72 h, SNU-5, 3-day incubation, read-out: Cell Count IC50): > 1000 nM
- Cell Count Activity Area (SNU-5; SNU-5, scale 0-10): 2.14
- Relative cell count (%) Mean (SNU-5; 1.00E+00 microM): 62.8%
- Relative cell count (%) Mean (SNU-5; 1.00E−01 microM): 65.7%
- Relative cell count (%) Mean (SNU-5; 1.00E−02 microM): 73.2%
- Relative cell count (%) Mean (SNU-5; 1.00E−03 microM): 84.5%
- Relative cell count (%) Mean (SNU-5; 1.01E−04 microM): 95.3%
- Relative cell count (%) Mean (SNU-5; 3.16E−01 microM): 64.0%
- Relative cell count (%) Mean (SNU-5; 3.17E−02 microM): 65.8%
- Relative cell count (%) Mean (SNU-5; 3.17E−03 microM): 77.6%
